# Measured values: US20220002297A1, “POLYMORPHS OF X842” (Cinclus Pharma AG, priority 2020, published 2022)
# Key:
# [1] = Thermogravimetric analysis (TGA); format: physicochemical; details: for degradation of the sample (temperature): 25 to 320° C., 10° C./minute
# Experimental: Analyses were performed on a Mettler Toledo TGA/DSC1 instrument, coupled with a Thermo Nicolet iS10 spectrometer. The sample was flushed with dry nitrogen gas during the analysis. The sample was scanned from 25 to 320° C. with a scan rate of 10° C./minute.
# Degradation of the sample occurred at approximately 248° C.
# Melting of the sample occurred at approximately 211° C., and degradation of the sample occurred at approximately 251° C.
# [2] = Dynamic vapour sorption (DVS) analysis, hygroscopicity; format: physicochemical
# Experimental: Analyses were performed on a Surface Measurement Systems DVS Intrinsic instrument. The relative humidity at 25° C. was calibrated against the deliquescense point of LiCL, Mg(NO3)2 and KCl. The sample (about 10-20 mg) was dried with nitrogen gas until a dm/dt below 0.002% per minute was reached. The instrument was running in dm/dt mode using a minimum dm/dt stability duration of 10 minutes and a maximum equilibrium time of 180 minutes. The sample was subjected to a sorption-desorption cycle running from 0 to 95 to 0% RH. One cycle consisted of 20 steps, those between 0 and 90% RH were taken in 10% RH each.
# The hygroscopicity of Form A was investigated using DVS at 25° C. The water uptake at 25° C./80% RH was about 0.08%, which means that Form A is non-hygroscopic.
# [3] = test system: intragastric acidity; format: in vivo, human
# Experimental: (§1) X842 is a prodrug of Linaprazan, which was disclosed in WO 99/55706 and previously studied in Phase I and II studies. […] A clinical Phase I study has shown that administration of a single dose of X842 can maintain the intragastric acidity above pH 4 for 24 hours. X842 is therefore tailored for patients with severe erosive gastroesophageal reflux disease (eGERD).
# Following absorption into the blood stream, X842 is quickly metabolized into Linaprazan, which is the active metabolite of X842. Whereas the plasma concentration of X842 is only very low and difficult to determine, the plasma concentration of Linaprazan may be determined instead. […] It is estimated that this requires a minimal plasma concentration (Cmin) of Linaprazan of at least about 240 nmol/L after 22 hours. At such doses, a once daily oral administration of the formulation would be sufficient. Therefore, in another aspect, the invention relates to the pharmaceutical composition as disclosed herein, wherein a unit dose of the composition provides a Cmin of Linaprazan in a human of at least about 240 nmol/L after 22 hours following oral administration of the pharmaceutical composition to said human.
# [4] = Half-life in the body, X842 compared to Linaprazan; format: in vivo; details: in comparison with Linaprazan
# Experimental: as §1
# [5] = Phase I and II studies; cited from earlier work
compound,measurement,setting,value
"Cc1cccc(C)c1CNc1cc(C(=O)NCCOC(=O)CCCC(=O)O)cn2c(C)c(C)nc12 [Form A, 5-{2-[({8-[(2,6-dimethylbenzyl)amino]-2,3-dimethylimidazo[1,2-a]pyridine-6-yl}carbonyl)-amino]ethoxy}-5-oxopentanoic acid]",degradation of the sample (temperature),[1],approximately 248 °C
same,weight loss before melting,[1]; before melting at approximately 217° C.,did not show any weight loss
same,hygroscopicity,[2]; DVS at 25° C.,non-hygroscopic
same,water uptake,"[2]; DVS, 25° C./80% RH",about 0.08%
same,change of form after DVS (X-ray powder diffractograms before and after),"[2]; sorption-desorption cycle 0 to 95 to 0% RH, 25° C.",no change of form occurred
"Cc1cccc(C)c1CNc1cc(C(=O)NCCOC(=O)CCCC(=O)O)cn2c(C)c(C)nc12 [Form B, 5-{2-[({8-[(2,6-dimethylbenzyl)amino]-2,3-dimethylimidazo[1,2-a]pyridine-6-yl}carbonyl)-amino]ethoxy}-5-oxopentanoic acid]",degradation of the sample (temperature),[1],approximately 251 °C
same,weight loss,"[1]; in the range of 128-220° C., attributed to loss of isopropyl alcohol",approximately 1%
"Cc1cccc(C)c1CNc1cc(C(=O)NCCOC(=O)CCCC(=O)O)cn2c(C)c(C)nc12 [Form X842, 5-{2-[({8-[(2,6-dimethylbenzyl)amino]-2,3-dimethylimidazo[1,2-a]pyridine-6-yl}carbonyl)-amino]ethoxy}-5-oxopentanoic acid]",time intragastric pH is maintained above 4,"[3]; after administration of X842, Phase I",24 hours
same,half-life in the body,[4],longer
Cc1cccc(C)c1CNc1cc(C(=O)NCCO)cn2c(C)c(C)nc12 [Linaprazan],elimination from the body,[5],quickly eliminated
same,tolerability,[5],well tolerated
same,minimal plasma concentration (Cmin) of Linaprazan required to maintain intra-gastric pH above 4 for 24 hours,"[3]; human, in vivo, po, 22 h",at least 240 nmol/L
